The results in this text go back to patent US20220185793A1, “COMPOUNDS FOR THE TREATMENT OF ONCOVIRUS INDUCED CANCER AND METHODS OF USE THEREOF” (Cellestia Biotech AG, priority 2019, published 2022).

Each structure is given as a SMILES string.

The test system of assay [1] is EBNA2. As to the kind of experiment: EBV target gene downregulation (qPCR) in LCL070903 cells: EBNA2. The assay is classed as cell-based. To be noted: Homo sapiens, mRNA by qPCR, Table 6. As for the experimental part: (§1) One million human EBV positive lymphoma cell lines HG3 and LCL070903 (Rosén et al., 2012) were cultured in RPMI1640 media supplemented with 10% FCS. For RNA expression analysis cells were treated with compounds at 10 μM concentration and for proliferation assay cells were treated at a concentration range of 0.01-100 μM. Following treatment cells were harvested and washed with 1× PBS. Total RNA was extracted as described below.
(§2) Total RNA was extracted from cells using TRIzol® extraction kit (Invitrogen). Briefly, 1×10^6 cells were washed with ice-cold 1× PBS and lysed in 1 ml of TRIzol® solution for 5 minutes at room temperature to dissociate nucleoprotein complexes. Lysed cells were then treated with 200 μl of chloroform and shaked vigorously for 15-30 seconds and incubated at room temperature for 2-3 minutes. The samples were centrifuged at 14000 rpm using Eppendorf table top centrifuge for 10 minutes at 4° C. Following centrifugation, upper aqueous phase was transferred to new eppendorf tubes. To precipitate total RNA 500 μl of […] was added to the separated aqueous phase and incubated at room temperature for 10 minutes. A RNA pellet was obtained by centrifuging the samples at 4° C. for 10 minutes. RNA pellet obtained was washed with 1 ml ice cold 75% ethanol and spun down at 14000 rpm at 4° C. RNA pellet was dried off of excess of ethanol and resuspended in 40 IA DPEC water.
(§3) Total RNA extracted from the cell was used to synthesize cDNA by reverse transcription reaction. Reverse transcription was performed according to one of the two following protocols.
(§4) In first protocol, SuperScript™ RT (Invitrogen) was used for reverse transcription reaction. RNA concentration was measured using NanoDrop®ND-1000 spectrophotometer (Witec AG) and 500 ng of total RNA was mixed with a 10 mM mix of dNTPs and 100 ng of random primers. The reaction mix was incubated at 65° C. for 5 minutes and quickly incubated on ice for 1 minute. Following incubation on ice, 5× first strand buffer and 0.1M DTT were added and mix was incubated for 2 minutes at 25° C. To start the reverse transcription reaction, 200U of SuperScrip™ II RT was added to the reaction mix and incubated at 42° C. for 50 minutes. The reaction was stopped by incubating the reaction mix at 75° C. for 15 minutes.
(§5) In second protocol, reverse transcription was performed using PrimeScript RT Master Mix (Takara). RNA concentration was measured using NanoDrop®ND-1000 spectrophotometer (Witec AG) and 1 μg of total RNA was mixed with 4 μL 5X PrimeScript RT Master Mix in a total reaction volume of 20 μL. The reaction mix was incubated at 37° C. for 15 minutes followed by heat inactivation at 85° C. for 5 seconds.
(§6) QRT-PCR was carried out using 7900 HT Fast Real-Time PCR system (Applied Biosystems) or QuantStudio 3 system (ThermoFisher). Briefly, 12.5 ng of template cDNA was used with a primer concentration of 0.5 μM each and lx SYBR Green dye in a final volume of 10 μL in a 96 well or 384 well plate format.
(§7) Upon infection of human cells, EBV is known to induce cancerous transformation of cells via upregulation of host as well as viral genes (e.g LMP1, EBNA2, BATF1, BMI1 and CD21). To determine the ability of compounds to downregulate EBV driven gene expression, HG-3 and LCL070903 cells were treated with selected compounds and percentage inhibition of EBV target genes was determined by quantitative PCR. As shown in Table 5 and Table 6, compounds down regulate EBV target genes such as BMI1 in HG-3 and LCL070903 cells, respectively (FIGS. 3 and 4).
Background: Real-time PCR tracks product formation cycle by cycle.

In assay [2] the test system is BMI1 (EBV target gene). The assay can be described thus: EBV target gene downregulation (qPCR) in LCL070903 cells: BMI1. The class given is cell-based, human. To be noted: 48 hours; for potency in downregulating EBV pathway (BMI1) compared with 6-(4-tert-butylphenoxy)pyridin-3-amine (in words): 10 μM, qRT-PCR, FIG. 3; for inhibition at 10 µM: Homo sapiens, mRNA by qPCR, Table 6. As for the experimental part: EBV positive human B LCL070903 cells were treated with 10 μM of the mentioned compounds for 48 hours. Following treatment, total RNA was extracted and mRNA expression analysed by qRT-PCR.
as §1, §2, §3, §4, §5, §6, §7

Assay [3] relates to EBV positive human B HG-3 cells. The assay can be described thus: PrestoBlue proliferation assay in HG-3 cells. The class given is cell-based. To be noted: 72 hours; for anti-proliferative effect on HG-3 cells (in words): PrestoBlue, FIG. 2 and Table 4; for IC50: Homo sapiens, concentration range 0.03-100 μM, PrestoBlue assay, read-out: Anti-proliferative IC50 values (μM) in HG-3 cells. As for the experimental part: (§8) One million human EBV positive lymphoma cell lines HG3 and LCL070903 (Rosén et al., 2012) were cultured in RPMI1640 media supplemented with 10% FCS. […] Following treatment cells were harvested and washed with 1× PBS. Total RNA was extracted as described below.
(§9) Alamarblue® and PrestoBlue proliferation assays were performed to determine the growth kinetics of EBV inhibitor treated cells. Alamar blue® and PrestoBlue consists of a cell permeable substrate resazurin. In metabolically active and proliferating cells, resazurin is converted to resorufin due to an intrinsic reducing power of live cells and produces a red fluorescence. Therefore production of resorufin serves as an indicator of the viability of the cell population.
(§10) Proliferation assays were performed by seeding 5000 cells/well in a 96 well plate. […] Each concentration was tested in 4 replicates. To determine the growth kinetics, 10 μl of Alamar blue® or PrestoBlue (Invitrogen) was added to each well and incubated for 4 hours. Readout was taken using Tecan F500 (Tecan) multiplate reader or Varioskan LUX (ThermoFisher) multiplate reader.
In brief, HG-3 cells were plated in a 96 well plate and treated with an increasing concentration of compounds.

Assay [4] concerns BMI1 (EBV target gene). The assay can be described thus: EBV target gene downregulation (qPCR) in HG-3 cells: BMI1. The class given is cell-based, human. To be noted: 48 hours; for inhibition at 10 µM: Homo sapiens, mRNA by qPCR, Table 5; for potency in downregulating EBV pathway (BMI1) compared with 6-(4-tert-butylphenoxy)pyridin-3-amine (in words): 10 μM, qRT-PCR, FIG. 4. As for the experimental part: EBV positive human B HG-3 cells were treated with 10 μM of the mentioned compounds for 48 hours. Following treatment, total RNA was extracted and mRNA expression analysed by qRT-PCR.
as §1, §2, §3, §4, §5, §6, §7

Assay [5] concerns EBNA2. The assay can be described thus: EBV target gene downregulation (qPCR) in HG-3 cells: EBNA2. The class given is cell-based. To be noted: Homo sapiens, mRNA by qPCR, Table 5. As for the experimental part:
as §1, §2, §3, §4, §5, §6
(§11) To determine the ability of compounds to downregulate EBV driven gene expression, HG-3 cells were treated with selected compounds and percentage inhibition of EBV target genes was determined by quantitative PCR. […] To further determine the anti-oncoviral specificity of compounds, these compounds were tested for their ability to downregulate a NOTCH target gene HES1 in a NOTCH1 positive (EBV negative) human leukemic cell line RPMI8402.
as §7

The subject of another assay is RUNX3. As to the kind of experiment: EBV target gene downregulation (qPCR) in HG-3 cells: RUNX3. To be noted: Homo sapiens, mRNA by qPCR, Table 2. The class given is cell-based. As for the experimental part:
as §1, §2, §3, §4
(§12) In second protocol, reverse transcription was performed using PrimeScript RT Master Mix (Takara). RNA concentration was measured using NanoDrop®ND-1000 spectrophotometer (Witec AG) and 1 μg of total RNA was mixed with 4 μL 5X PrimeScript RT Master Mix in a total reaction volume of 20 μL. […]
(§13) To determine the ability of compounds to downregulate EBV driven gene expression, HG-3 cells were treated with selected compounds and percentage inhibition of EBV target genes was determined by quantitative PCR. […]

The subject of the next assay is NOTCH target gene HES1. The assay can be described thus: NOTCH target gene HES1 downregulation in RPMI 8402 cells. To be noted: RPMI 8402 cells (NOTCH1 positive, EBV negative). The class given is cell-based, human. Also on record: Percentage inhibition of NOTCH target gene HES1: concentration or dose not given beside the values. As for the experimental part: as §2, §3, §6, §11

In the next assay the test system is LMP1. As to the kind of experiment: EBV target gene downregulation (qPCR) in HG-3 cells: LMP1. To be noted: Homo sapiens, mRNA by qPCR, Table 2. The assay is classed as cell-based. As for the experimental part: as §1, §2, §3, §4, §12, §13
Assay [6] deals with EBV positive human lymphoma HG-3 cells. The assay can be described thus: Alamar blue proliferation assay in HG-3 cells. The assay is classed as cell-based. To be noted: 72 hours; for anti-proliferative effect on HG-3 cells (in words): Alamar blue, FIG. 1 and Table 1; for IC50: Homo sapiens, concentration range 0.01-10 μM, Alamar blue assay, read-out: Anti-proliferative IC50 values. As for the experimental part:
as §8, §9, §10
In order to determine anti-cancer activity of compounds in oncoviral driven cells, an EBV infected human Chronic Lymphocytic Leukemia cell line HG-3 was used (Rosen et al., 2012). In brief, HG-3 cells were plated in a 96 well plate and treated with an increasing concentration of compounds.
Background: The colour change of resazurin is a common sign of viable cells or microbes.

Turning to `c1ccc(-c2ccc(Oc3ccc(NCc4cccnc4)cn3)cc2)cc1` [Example 20, 6-([1,1r-Biphenyl]-4-yloxy)-N-(pyridin-3-ylmethyl)pyridin-3-amine], 10 µM produced 27% inhibition with EBNA2 [1]. For the same molecule, in the assay on BMI1 (EBV target gene) [2], the “potency in downregulating EBV pathway (BMI1) compared with 6-(4-tert-butylphenoxy)pyridin-3-amine (in words)” value is given as “enhanced potency” and testing at 10 µM gave an inhibition of 44%. In addition, in assay [3], the “anti-proliferative effect on HG-3 cells (in words)” value (from here on “anti-proliferative effect”) is “demonstrate anti-proliferative effect” and the IC50 – broadly, the concentration needed to halve the response being measured – was determined as 0.3 µM. In addition, the inhibition (as a rule, the relative decrease from the control value, in per cent) at 10 µM with BMI1 (EBV target gene) [4] was found to be 35%.
Consider `Fc1cc(NCc2cccnc2)ccc1Oc1ccc(C2CCCCC2)cc1` [Example 19, 4-(4-Cyclohexylphenoxy)-3-fluoro-N-(pyridin-3-ylmethyl)aniline], for which the inhibition at 10 µM is 19% with EBNA2 [1], 56% with BMI1 (EBV target gene) [2], 19% in the assay on BMI1 (EBV target gene) [4] and 36% in the assay on EBNA2 [5]. Moreover, the “potency in downregulating EBV pathway (BMI1) compared with 6-(4-tert-butylphenoxy)pyridin-3-amine (in words)” value in the assay with BMI1 (EBV target gene) [2] and with BMI1 (EBV target gene) [4] was “enhanced potency” in each case. Also, the “anti-proliferative effect” value in assay [3] was “demonstrate anti-proliferative effect”. Moreover, the IC50 in assay [3] amounted to 3.5 µM.
As to `CC(C)(C)c1ccc(Oc2ccc(NCc3ccncc3)cn2)cc1` [Example 1, 6-(4-(tert-Butyl)phenoxy)-N-(pyridin-4-ylmethyl)pyridin-3-amine], the inhibition at 10 µM with RUNX3 was found to be 27%. Besides, in the assay on NOTCH target gene HES1, the “Percentage inhibition of NOTCH target gene HES1” value was found to be 0% and the “downregulation of NOTCH target gene HES1 (in words)” value is listed as “do not modulate expression of this gene”. The inhibition at 10 µM in the assay with LMP1 came out at 30%. Further, in [6], the “anti-proliferative effect” value was “demonstrate anti-proliferative effect” and the IC50 came out at 4000 nM.
In the case of `CC(C)(C)c1ccc(Oc2ccc(NCc3c[nH]cn3)cn2)cc1` [Example 10, N-((1H-Imidazol-4-yl)methyl)-6-(4-(tert-butyl)phenoxy)pyridin-3-amine], in the assay with RUNX3, testing at 10 µM gave an inhibition of 37%. Besides, in the assay on NOTCH target gene HES1, the “Percentage inhibition of NOTCH target gene HES1” value was 0% and the “downregulation of NOTCH target gene HES1 (in words)” value is “do not modulate expression of this gene”. In the assay with LMP1, this molecule returned an inhibition at 10 µM of 15%. Further, in assay [6], the “anti-proliferative effect” value was “demonstrate anti-proliferative effect” and the IC50 amounted to 6600 nM.
`Cc1ccccc1-c1ccc(Oc2ccc(NCc3cccnc3)cn2)cc1C` [Example 29, 6-((2,2′-dimethyl-[1,1′-biphenyl]-4-yl)oxy)-N-(pyridin-3-ylmethyl)pyridin-3-amine]: the inhibition at 10 µM is 30% with EBNA2 [1], 72% in the assay on BMI1 (EBV target gene) [2], 28% in the assay with BMI1 (EBV target gene) [4] and 6% in the assay with EBNA2 [5]. The “potency in downregulating EBV pathway (BMI1) compared with 6-(4-tert-butylphenoxy)pyridin-3-amine (in words)” value with BMI1 (EBV target gene) [2] and in the assay on BMI1 (EBV target gene) [4] was “enhanced potency” each time. Besides, the “anti-proliferative effect” value in assay [3] was “demonstrate anti-proliferative effect”. Moreover, the IC50 in assay [3] came out at 2 µM.
In the case of `Cc1nc(Oc2ccc(-c3ccccc3)cc2)ccc1NCc1cccnc1` [Example 23, 6-([1,1′-Biphenyl]-4-yloxy)-2-methyl-N-(pyridin-3-ylmethyl)pyridin-3-amine], the inhibition at 10 µM with EBNA2 [1] was 1%; with BMI1 (EBV target gene) [2], 39%; with BMI1 (EBV target gene) [4], 35%; in the assay with EBNA2 [5] it was 1%. Besides, the “potency in downregulating EBV pathway (BMI1) compared with 6-(4-tert-butylphenoxy)pyridin-3-amine (in words)” value in the assay with BMI1 (EBV target gene) [2] and in the assay on BMI1 (EBV target gene) [4] was “enhanced potency” in each case. Besides, in [3], the “anti-proliferative effect” value is “demonstrate anti-proliferative effect”. For the same molecule, in [3], the IC50 is 1.9 µM.
